Assay results as given in patent US20130261165A1, “PREVENTION AND TREATMENT OF DISEASES CHARACTERIZED BY MESENCEPHALIC DOPAMINERGIC NEURON CELL DEATH” (THE MCLEAN HOSPITAL CORPORATION, priority 2010, published 2013).
Values joined by “and” are separate entries in the source; they are usually repeats but may differ in a detail not shown here. Equal values may be shown once. Where a name gives a salt, the structure may show the parent alone.

tested on: not given; assay: not given; conditions: pH 1.0, within one hour; cited from earlier work

**Q.** With `CNCC[C@H](Oc1cccc2ccccc12)c1cccs1` [Duloxetine] as the compound, how does the “dosage hydrolyzed to 1-naphthol” value read?
**A.** 50%

same assay, conditions: pH 2.0, in one hour; cited from earlier work

**Q.** With `CNCC[C@H](Oc1cccc2ccccc12)c1cccs1` [Duloxetine] as the compound, how does the “dosage degraded to 1-naphthol” value read?
**A.** 10%

same assay, conditions: pH 4.0; cited from earlier work

**Q.** Which “time for 10% degradation” value does the source give for `CNCC[C@H](Oc1cccc2ccccc12)c1cccs1` [Duloxetine] here?
**A.** up to 63 hours

tested on: FoxA2; assay: FoxA2 mRNA expression by qPCR in primary ventral midbrain cultures; conditions: Mus musculus, 24 h, read-out: Fold Increase in FoxA2 Expression
Experimental: (§5) One library consisting of FDA-approved and non-FDA approved drugs (NINDS) was screened for drugs with an ability to up-regulate En-1 and/or FoxA2 expression in neuronal cells. Candidate compounds were screened in a gene expression assay using a qPCR detection methodology in a primary ventral midbrain preparation of E12 mice.
(§6) To determine the extent of upregulation in the compounds of interest after initial screening, primary cultures of ventral midbrain cells of E12 CD1 mice were prepared. The embryonic ventral midbrains were removed and stored in HBSS on ice. The dissection time was less than 30-60 minutes. The ventral midbrain tissue was dissociated by removal of the HBSS and addition of 1 ml of 0.05% trypsin-EDTA for 10 minutes at 37° C. During incubation, the tissue and the trypsin-EDTA solution was mixed by occasional careful swirling of the tube. The reaction was stopped, the trypsin aspirated, and 1 ml of 50% HBSS/FBS was added. […] Candidate compound treatment was stopped by cell lysis. The mRNA was isolated and cDNA was synthesized using the Qiagen Turbocapture™ kit (Qiagen Inc., Valencia, Calif.) using Superscript III® reverse transcriptase (Life Technologies, Carlsbad, Calif.) according to manufacturer's protocol. En-1 and FOXA2 mRNA in the cultured cells was quantified using qPCR. […] Assay fluorescence was determined using a Step-One Plus fluorescence plate reader in 96-well plates at a standard reaction time for ramp speed.
(§7) The fold change in mRNA expression level was calculated according to the following formulas:
Fold change=2^−ΔΔCt wherein [1]
(§8) ΔΔCt=(Cttarget gene−Ct18S)treated−(Cttarget gene−Ct18S)untreated.
(§9) In formula 2, Cttarget gene refers to the Ct value determined for either En-1 or FOXA2 (as appropriate) and Ct18S refers to the Ct value determined for the mRNA encoding the 18S ribosomal subunit, each measured by qPCR.

**Q.** Which fold induction at 10 µM does the source give for `CC(=O)S[C@@H]1CC2=CC(=O)CC[C@]2(C)[C@H]2CC[C@@]3(C)[C@@H](CC[C@@]34CCC(=O)O4)[C@H]12` [Spironolactone] here?
**A.** 1.74

**Q.** For `CCCc1cc(=O)[nH]c(=S)[nH]1` [Propylthiouracil], which fold induction at 10 µM is on record?
**A.** 1.68

**Q.** With `O=C1CC[C@@]2(O)[C@H]3Cc4ccc(O)c5c4[C@@]2(CCN3CC2CC2)[C@H]1O5` [Naltrexone hydrochloride] as the compound, how does the fold induction at 10 µM read?
**A.** 3.39

**Q.** With `Cn1cc[nH]c1=S` [Methimazole] as the compound, how does the fold induction at 10 µM read?
**A.** 1.97

**Q.** Which fold induction at 10 µM does the source give for `COc1ccccc1OCC(O)COC(N)=O` (stereo not drawn) [Methocarbamol] here?
**A.** 2.3

**Q.** With `CCCCNC(=O)NS(=O)(=O)c1ccc(C)cc1` [Tolbutamide] as the compound, how does the fold induction at 10 µM read?
**A.** 35

**Q.** For `CC(CCc1ccccc1)NC(C)C(O)c1ccc(O)cc1` (stereo not drawn) [Nylidrin hydrochloride], which fold induction at 10 µM is on record?
**A.** 1.7

**Q.** With `C[C@H]1C[C@@H]2[C@H]([C@@H](O)C[C@@]3(C)[C@H]2CC[C@]3(O)C(=O)CO)[C@@]2(C)C=CC(=O)C=C12` [Methylprednisolone] as the compound, how does the fold induction at 10 µM read?
**A.** 1.41

**Q.** For `Cc1cc(=O)[nH]c(=S)[nH]1` [Methylthiouracil], which fold induction at 10 µM is on record?
**A.** 2.34

**Q.** Which fold induction at 10 µM does the source give for `c1ccc2c(CC3=NCCN3)cccc2c1` [Naphazoline hydrochloride] here?
**A.** 1.99

**Q.** For `CC(=O)O[C@]1(C(C)=O)CC[C@H]2[C@@H]3C=C(C)C4=CC(=O)CC[C@]4(C)[C@H]3CC[C@@]21C` [Megestrol acetate], which fold induction at 10 µM is on record?
**A.** 1.89

**Q.** With `C#CCN(C)Cc1ccccc1` [Pargyline hydrochloride] as the compound, how does the fold induction at 10 µM read?
**A.** 1.27

**Q.** Which fold induction at 10 µM does the source give for `C[N+]1(C)[C@@H]2C[C@@H](OC(=O)[C@H](CO)c3ccccc3)C[C@H]1[C@@H]1O[C@@H]12` [Methscopolamine bromide] here?
**A.** 1.9

**Q.** For `CNCC[C@H](Oc1cccc2ccccc12)c1cccs1` [Duloxetine hydrochloride], which fold induction at 10 µM is on record?
**A.** 49.5

**Q.** For `CC(=O)c1ccc(S(=O)(=O)NC(=O)NC2CCCCC2)cc1` [Acetohexamide], which fold induction at 10 µM is on record?
**A.** 3

**Q.** With `CCC1(c2ccccc2)C(=O)NCNC1=O` [Primidone] as the compound, how does the fold induction at 10 µM read?
**A.** 1.43

**Q.** With `c1ccc2c(c1)CCCC2C1=NCCN1` (stereo not drawn) [Tetrahydrozoline hydrochloride] as the compound, how does the fold induction at 10 µM read?
**A.** 2.06

**Q.** Which fold induction at 10 µM does the source give for `COc1ccc2c(c1OC)C(=O)O[C@@H]2[C@H]1c2c(cc3c(c2OC)OCO3)CCN1C` [Noscapine hydrochloride] here?
**A.** 1.45

**Q.** With `CC(C)NCC(O)COc1cccc2[nH]ccc12` (stereo not drawn) [Pindolol] as the compound, how does the fold induction at 10 µM read?
**A.** 44.1

**Q.** For `CCN1CCCC1CNC(=O)c1cc(S(N)(=O)=O)ccc1OC` (stereo not drawn) [Sulpiride], which fold induction at 10 µM is on record?
**A.** 1.7

**Q.** With `O=C(O)c1ccccc1Nc1cccc(C(F)(F)F)c1` [Flufenamic acid] as the compound, how does the fold induction at 10 µM read?
**A.** 3.4

**Q.** Which fold induction at 10 µM does the source give for `Cc1ccccc1C(OCCN(C)C)c1ccccc1` (stereo not drawn) [Orphenadrine citrate] here?
**A.** 1.82

**Q.** For `NNCCc1ccccc1` [Phenelzine sulfate], which fold induction at 10 µM is on record?
**A.** 2.5

**Q.** For `c1ccc(CC2=NCCN2)cc1` [Tolazoline hydrochloride], which fold induction at 10 µM is on record?
**A.** 2.67

**Q.** For `CO[C@@]1(NC(=O)C(C(=O)O)c2ccc(O)cc2)C(=O)N2C(C(=O)O)=C(CSc3nnnn3C)CO[C@@H]21` (stereo partly drawn) [Moxalactam disodium], which fold induction at 10 µM is on record?
**A.** 7.31

**Q.** With `CC(N)C12CC3CC(CC(C3)C1)C2` (stereo not drawn) [Rimantadine hydrochloride] as the compound, how does the fold induction at 10 µM read?
**A.** 2.7

**Q.** With `CC1(C)O[C@@H]2C[C@H]3[C@@H]4C[C@H](F)C5=CC(=O)CC[C@]5(C)[C@H]4[C@@H](O)C[C@]3(C)[C@]2(C(=O)CO)O1` [Flurandrenolide] as the compound, how does the fold induction at 10 µM read?
**A.** 1.9

same assay, conditions: primary ventral midbrain cells of E12 CD1 mice, 10 μM for 24 hours, qPCR vs 18S

**Q.** Which “Fold Increase in FoxA2 Expression” value does the source give for `NC(=O)c1cc([N+](=O)[O-])cc([N+](=O)[O-])c1` [Nitromide] here?
**A.** 1.55 Fold

tested on: FoxA2 positive dopaminergic neurons; assay: not given; conditions: 10 μM pre-treatment 24 hours prior to 6-OHDA (1-50 μM); control = cells not exposed to toxin

**Q.** Which “DA neuron survival as a percentage of control” value does the source give for `CNCC[C@H](Oc1cccc2ccccc12)c1cccs1` [Duloxetine hydrochloride] here?
**A.** 107%

tested on: FoxA2; assay: not given; conditions: adult male C57 mice, 20 mg/kg/day subcutaneous for 12 days, n=8, qPCR vs GAPDH and β-actin, listed as duloxetine HCl, hydrochloride
Experimental: (§1) Adult mice were treated with duloxetine HCl (20 mg/kg/day) by subcutaneous injection for 12 days (n=8). […] Data were obtained by qPCR analysis using GAPDH and β-actin as housekeeping genes followed by ΔΔCt calculation.
(§2) Duloxetine HCl (20 mg/kg/day) or saline vehicle was administrated subcutaneously into adult male C57 mice over a period of 12 days. […] Substantia nigra pars compacta was fresh dissected and snap frozen in RNA preserving solution in liquid nitrogen. […] Changes in mRNA expression due to duloxetine HCl treatment were determined by quantitative PCR using a Step One Plus Instrument and TaqMan® reagents (Applied Biosystems). […] Beta actin and GAPD were used as housekeeping genes and fold regulation was calculated using the delta Ct method.
(§3) ΔΔCt=(Cttarget gene−Cthousekeeping gene)treated−(Cttarget gene−Cthousekeeping gene)untreated
(§4) Untreated refers to combined cDNA from the saline treated animals. cDNA from each saline treated animal was also run against the pooled control cDNA.

**Q.** Which “FoxA2 mRNA expression in substantia nigra, fold increase” value does the source give for `CNCC[C@H](Oc1cccc2ccccc12)c1cccs1` [Duloxetine hydrochloride] here?
**A.** 2.19 fold and 2.19±0.23 fold

tested on: En-1; assay: not given; conditions: adult male C57 mice, 20 mg/kg/day subcutaneous for 12 days, n=8, qPCR vs GAPDH and β-actin, listed as duloxetine HCl, hydrochloride
Experimental: as §1, §2, §3, §4

**Q.** For `CNCC[C@H](Oc1cccc2ccccc12)c1cccs1` [Duloxetine hydrochloride], which “En-1 mRNA expression in substantia nigra, fold increase” value is on record?
**A.** 1.98 fold and 1.98±0.098 fold

tested on: En-1; assay: En-1 mRNA expression by qPCR in primary ventral midbrain cultures; conditions: Mus musculus, 24 h, read-out: Fold Increase in En-1 Expression
Experimental: as §5, §6, §7
Fold change=2^−ΔΔCt wherein [1]
as §8, §9

**Q.** With `CC(=O)S[C@@H]1CC2=CC(=O)CC[C@]2(C)[C@H]2CC[C@@]3(C)[C@@H](CC[C@@]34CCC(=O)O4)[C@H]12` [Spironolactone] as the compound, how does the fold induction at 10 µM read?
**A.** 1.34

**Q.** Which fold induction at 10 µM does the source give for `CCCc1cc(=O)[nH]c(=S)[nH]1` [Propylthiouracil] here?
**A.** 1.3

**Q.** Which fold induction at 10 µM does the source give for `O=C1CC[C@@]2(O)[C@H]3Cc4ccc(O)c5c4[C@@]2(CCN3CC2CC2)[C@H]1O5` [Naltrexone hydrochloride] here?
**A.** 2.09

**Q.** Which fold induction at 10 µM does the source give for `Cn1cc[nH]c1=S` [Methimazole] here?
**A.** 0.2

**Q.** With `COc1ccccc1OCC(O)COC(N)=O` (stereo not drawn) [Methocarbamol] as the compound, how does the fold induction at 10 µM read?
**A.** 1.83

**Q.** For `CCCCNC(=O)NS(=O)(=O)c1ccc(C)cc1` [Tolbutamide], which fold induction at 10 µM is on record?
**A.** 21.6

**Q.** With `C[C@H]1C[C@@H]2[C@H]([C@@H](O)C[C@@]3(C)[C@H]2CC[C@]3(O)C(=O)CO)[C@@]2(C)C=CC(=O)C=C12` [Methylprednisolone] as the compound, how does the fold induction at 10 µM read?
**A.** 1.38

**Q.** For `c1ccc2c(CC3=NCCN3)cccc2c1` [Naphazoline hydrochloride], which fold induction at 10 µM is on record?
**A.** 8.95

**Q.** With `CCOC(=O)[C@H](CCc1ccccc1)N[C@@H](C)C(=O)N1[C@H](C(=O)O)C[C@H]2CCCC[C@@H]21` [Trandolapril] as the compound, how does the fold induction at 10 µM read?
**A.** 17.9

**Q.** Which fold induction at 10 µM does the source give for `CC(=O)O[C@]1(C(C)=O)CC[C@H]2[C@@H]3C=C(C)C4=CC(=O)CC[C@]4(C)[C@H]3CC[C@@]21C` [Megestrol acetate] here?
**A.** 2.14

**Q.** With `C#CCN(C)Cc1ccccc1` [Pargyline hydrochloride] as the compound, how does the fold induction at 10 µM read?
**A.** 1.73

**Q.** For `C[N+]1(C)[C@@H]2C[C@@H](OC(=O)[C@H](CO)c3ccccc3)C[C@H]1[C@@H]1O[C@@H]12` [Methscopolamine bromide], which fold induction at 10 µM is on record?
**A.** 1.9

**Q.** For `CNCC[C@H](Oc1cccc2ccccc12)c1cccs1` [Duloxetine hydrochloride], which fold induction at 10 µM is on record?
**A.** 19

**Q.** For `CC(=O)c1ccc(S(=O)(=O)NC(=O)NC2CCCCC2)cc1` [Acetohexamide], which fold induction at 10 µM is on record?
**A.** 2.3

**Q.** With `CCC1(c2ccccc2)C(=O)NCNC1=O` [Primidone] as the compound, how does the fold induction at 10 µM read?
**A.** 0.86

**Q.** Which fold induction at 10 µM does the source give for `c1ccc2c(c1)CCCC2C1=NCCN1` (stereo not drawn) [Tetrahydrozoline hydrochloride] here?
**A.** 1.06

**Q.** With `COc1ccc2c(c1OC)C(=O)O[C@@H]2[C@H]1c2c(cc3c(c2OC)OCO3)CCN1C` [Noscapine hydrochloride] as the compound, how does the fold induction at 10 µM read?
**A.** 1.83

**Q.** With `CC(C)NCC(O)COc1cccc2[nH]ccc12` (stereo not drawn) [Pindolol] as the compound, how does the fold induction at 10 µM read?
**A.** 9.8

**Q.** For `CCN1CCCC1CNC(=O)c1cc(S(N)(=O)=O)ccc1OC` (stereo not drawn) [Sulpiride], which fold induction at 10 µM is on record?
**A.** 1.4

**Q.** For `O=C(O)c1ccccc1Nc1cccc(C(F)(F)F)c1` [Flufenamic acid], which fold induction at 10 µM is on record?
**A.** 2.6

**Q.** For `Cc1ccccc1C(OCCN(C)C)c1ccccc1` (stereo not drawn) [Orphenadrine citrate], which fold induction at 10 µM is on record?
**A.** 1.69

**Q.** For `c1ccc(CC2=NCCN2)cc1` [Tolazoline hydrochloride], which fold induction at 10 µM is on record?
**A.** 2.51

**Q.** Which fold induction at 10 µM does the source give for `CO[C@@]1(NC(=O)C(C(=O)O)c2ccc(O)cc2)C(=O)N2C(C(=O)O)=C(CSc3nnnn3C)CO[C@@H]21` (stereo partly drawn) [Moxalactam disodium] here?
**A.** 4.34

**Q.** With `CC(N)C12CC3CC(CC(C3)C1)C2` (stereo not drawn) [Rimantadine hydrochloride] as the compound, how does the fold induction at 10 µM read?
**A.** 1.3

**Q.** For `CC1(C)O[C@@H]2C[C@H]3[C@@H]4C[C@H](F)C5=CC(=O)CC[C@]5(C)[C@H]4[C@@H](O)C[C@]3(C)[C@]2(C(=O)CO)O1` [Flurandrenolide], which fold induction at 10 µM is on record?
**A.** 1.5

same assay, conditions: primary ventral midbrain cells of E12 CD1 mice, 10 μM for 24 hours, qPCR vs 18S

**Q.** For `NC(=O)c1cc([N+](=O)[O-])cc([N+](=O)[O-])c1` [Nitromide], which “Fold Increase in En-1 Expression” value is on record?
**A.** 0.28 Fold
